Measurements published in patent US20240092758A1, “IMIDAZOLO INDAZOLE COMPOUNDS AS JAK INHIBITORS” (Theravance Biopharma R&D IP, LLC, priority 2021, published 2024).

How the values were obtained:
[1] = target: JAK2 (Homo sapiens (Human), UniProt O60674); assay: Biochemical JAK kinase assay (LanthaScreen), JAK2; conditions: for Ki: read-out: JAK2 pKi (converted)
How it was run: (§1)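 LanthaScreen format: phospho-STAT1 (pTyr701) detected with 2 nM Tb antibody after 10 mM EDTA quench. Kinase step used Km-level ATP and 200 nM STAT1 peptide, 1 h at ambient after 1 h pre-incubation. Inhibition fitted to IC50, reported as pKi.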

[2] = target: JAK1 (Homo sapiens (Human), UniProt P23458); assay: Biochemical JAK kinase assay (LanthaScreen), JAK1; conditions: for Ki: read-out: JAK1 pKi (converted)
Sequence of JAK1 (P23458 whole entry): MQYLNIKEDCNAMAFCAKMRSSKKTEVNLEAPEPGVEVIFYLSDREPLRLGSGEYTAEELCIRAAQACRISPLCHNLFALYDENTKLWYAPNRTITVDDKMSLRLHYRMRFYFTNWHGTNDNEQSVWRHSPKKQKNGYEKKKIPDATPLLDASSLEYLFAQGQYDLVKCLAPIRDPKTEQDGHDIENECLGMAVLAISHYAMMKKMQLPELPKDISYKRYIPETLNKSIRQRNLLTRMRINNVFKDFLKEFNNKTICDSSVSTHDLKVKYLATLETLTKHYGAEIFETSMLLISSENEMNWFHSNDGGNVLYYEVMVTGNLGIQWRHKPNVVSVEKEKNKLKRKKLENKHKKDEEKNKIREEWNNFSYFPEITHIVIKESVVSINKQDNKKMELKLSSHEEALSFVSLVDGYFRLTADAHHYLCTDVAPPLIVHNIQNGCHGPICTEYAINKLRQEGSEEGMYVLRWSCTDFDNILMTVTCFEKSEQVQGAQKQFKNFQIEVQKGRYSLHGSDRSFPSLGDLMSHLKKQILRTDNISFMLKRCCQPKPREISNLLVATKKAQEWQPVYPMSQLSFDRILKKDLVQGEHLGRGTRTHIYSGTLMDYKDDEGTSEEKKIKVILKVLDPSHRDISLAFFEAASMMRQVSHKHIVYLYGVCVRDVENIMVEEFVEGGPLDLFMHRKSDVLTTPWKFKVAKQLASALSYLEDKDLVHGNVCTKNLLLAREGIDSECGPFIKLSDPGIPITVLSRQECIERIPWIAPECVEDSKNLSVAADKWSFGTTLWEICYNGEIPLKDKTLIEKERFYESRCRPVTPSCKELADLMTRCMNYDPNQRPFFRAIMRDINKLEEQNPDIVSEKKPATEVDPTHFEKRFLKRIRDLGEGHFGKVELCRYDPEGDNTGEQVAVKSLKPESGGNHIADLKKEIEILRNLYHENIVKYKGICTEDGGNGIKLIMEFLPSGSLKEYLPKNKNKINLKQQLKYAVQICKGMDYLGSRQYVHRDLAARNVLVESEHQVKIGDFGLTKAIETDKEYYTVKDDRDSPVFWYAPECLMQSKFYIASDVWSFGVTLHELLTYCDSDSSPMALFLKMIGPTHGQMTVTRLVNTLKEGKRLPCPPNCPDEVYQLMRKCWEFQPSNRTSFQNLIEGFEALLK
How it was run: as §1

[3] = tested on: IL-13 induced STAT6 phosphorylation in BEAS-2B human lung epithelial cells; assay: Cellular JAKI potency assay (BEAS-2B); format: cell-based; conditions: Homo sapiens, BEAS-2B, BEAS-2B cells, read-out: BEAS2B pIC50 (converted)
How it was run: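 BEAS-2B cells were preincubated with compound (0.1% DMSO) in HBSS/HEPES/BSA for 1 h at 37 °C, then stimulated with IL-13 (80 ng/mL before addition) for 30 min. After lysis, pSTAT6 (Tyr641) was quantified by AlphaLISA SureFire; IC50 from a 4-parameter fit of percent inhibition, reported as pIC50.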

[4] = target: JAK3 (Homo sapiens (Human), UniProt P52333); assay: Biochemical JAK kinase assay (LanthaScreen), JAK3; conditions: read-out: JAK3 pKi (converted)
Sequence of JAK3 (P52333 whole entry): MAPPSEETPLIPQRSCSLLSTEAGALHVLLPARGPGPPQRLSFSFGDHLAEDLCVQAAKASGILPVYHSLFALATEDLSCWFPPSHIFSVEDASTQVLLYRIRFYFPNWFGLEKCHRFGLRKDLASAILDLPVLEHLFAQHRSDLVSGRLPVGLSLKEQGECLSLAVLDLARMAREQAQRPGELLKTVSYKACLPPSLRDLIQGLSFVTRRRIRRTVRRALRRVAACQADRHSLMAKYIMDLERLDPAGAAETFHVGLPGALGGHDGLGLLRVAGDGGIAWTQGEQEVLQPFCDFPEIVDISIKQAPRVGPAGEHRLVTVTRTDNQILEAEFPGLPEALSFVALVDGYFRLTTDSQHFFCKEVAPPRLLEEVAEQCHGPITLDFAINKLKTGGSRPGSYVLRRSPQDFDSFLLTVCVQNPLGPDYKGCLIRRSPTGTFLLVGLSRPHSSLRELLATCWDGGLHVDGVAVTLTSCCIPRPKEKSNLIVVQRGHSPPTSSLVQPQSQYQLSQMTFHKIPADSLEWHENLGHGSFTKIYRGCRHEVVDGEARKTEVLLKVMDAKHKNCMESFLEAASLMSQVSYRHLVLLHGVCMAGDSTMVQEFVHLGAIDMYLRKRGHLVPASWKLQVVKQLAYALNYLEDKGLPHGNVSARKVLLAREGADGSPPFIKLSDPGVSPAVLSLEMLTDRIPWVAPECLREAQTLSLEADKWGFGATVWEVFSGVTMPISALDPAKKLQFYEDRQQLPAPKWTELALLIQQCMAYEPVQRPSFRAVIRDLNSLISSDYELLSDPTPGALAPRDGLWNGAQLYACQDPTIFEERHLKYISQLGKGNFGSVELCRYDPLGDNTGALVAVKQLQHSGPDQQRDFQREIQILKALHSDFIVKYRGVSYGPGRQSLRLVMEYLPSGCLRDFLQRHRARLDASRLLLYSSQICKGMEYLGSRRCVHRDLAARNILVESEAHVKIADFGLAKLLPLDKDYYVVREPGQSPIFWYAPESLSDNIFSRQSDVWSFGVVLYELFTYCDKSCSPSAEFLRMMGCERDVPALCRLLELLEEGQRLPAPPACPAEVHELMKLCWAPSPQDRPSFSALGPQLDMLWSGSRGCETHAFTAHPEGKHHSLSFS
Description: A panel of four LanthaScreen JAK biochemical assays (JAK1, 2, 3 and Tyk2) were carried in a common kinase reaction buffer (50 mM HEPES, pH 7.5, 0.01% Brij-35, 10 mM MgCl2, and 1 mM EGTA). Recombinant GST-tagged JAK enzymes and a GFP-tagged STAT1 peptide substrate were obtained from Life Technologies.
Serially diluted compounds were pre-incubated with each of the four JAK enzymes and the substrate in white 384-well microplates (Corning) at ambient temperature for 1 h. ATP was subsequently added to initiate the kinase reactions in 10 μL total volume, with 1% DMSO. The final enzyme concentrations for JAK1, 2, 3 and Tyk2 are 4.2 nM, 0.1 nM, 1 nM, and 0.25 nM respectively; the corresponding Km ATP concentrations used are 25 μM, 3 μM, 1.6 μM, and 10 μM; while the substrate concentration is 200 nM for all four assays. Kinase reactions were allowed to proceed for 1 hour at ambient temperature before a 10 μL preparation of EDTA (10 mM final concentration) and Tb-anti-pSTAT1 (pTyr701) antibody (Life Technologies, 2 nM final concentration) in TR-FRET dilution buffer (Life Technologies) was added. The plates were allowed to incubate at ambient temperature for 1 h before being read on the EnVision reader (Perkin Elmer). Emission ratio signals (520 nm/495 nm) were recorded and utilized to calculate the percent inhibition values based on DMSO and background controls.
For dose-response analysis, percent inhibition data were plotted vs. compound concentrations, and IC50 values were determined from a 4-parameter robust fit model with the Prism software (GraphPad Software). Results were expressed as pIC50 (negative logarithm of IC50) and subsequently converted to pKi (negative logarithm of dissociation constant, Ki) using the Cheng-Prusoff equation.
Test compounds having a lower Ki value or higher pKi value in the four JAK assays show greater inhibition of JAK activity.

[5] = target: TYK2 (Homo sapiens (Human), UniProt P29597); assay: Biochemical JAK kinase assay (LanthaScreen), Tyk2; conditions: read-out: Tyk2 pKi (converted)
Sequence of TYK2 (P29597 whole entry): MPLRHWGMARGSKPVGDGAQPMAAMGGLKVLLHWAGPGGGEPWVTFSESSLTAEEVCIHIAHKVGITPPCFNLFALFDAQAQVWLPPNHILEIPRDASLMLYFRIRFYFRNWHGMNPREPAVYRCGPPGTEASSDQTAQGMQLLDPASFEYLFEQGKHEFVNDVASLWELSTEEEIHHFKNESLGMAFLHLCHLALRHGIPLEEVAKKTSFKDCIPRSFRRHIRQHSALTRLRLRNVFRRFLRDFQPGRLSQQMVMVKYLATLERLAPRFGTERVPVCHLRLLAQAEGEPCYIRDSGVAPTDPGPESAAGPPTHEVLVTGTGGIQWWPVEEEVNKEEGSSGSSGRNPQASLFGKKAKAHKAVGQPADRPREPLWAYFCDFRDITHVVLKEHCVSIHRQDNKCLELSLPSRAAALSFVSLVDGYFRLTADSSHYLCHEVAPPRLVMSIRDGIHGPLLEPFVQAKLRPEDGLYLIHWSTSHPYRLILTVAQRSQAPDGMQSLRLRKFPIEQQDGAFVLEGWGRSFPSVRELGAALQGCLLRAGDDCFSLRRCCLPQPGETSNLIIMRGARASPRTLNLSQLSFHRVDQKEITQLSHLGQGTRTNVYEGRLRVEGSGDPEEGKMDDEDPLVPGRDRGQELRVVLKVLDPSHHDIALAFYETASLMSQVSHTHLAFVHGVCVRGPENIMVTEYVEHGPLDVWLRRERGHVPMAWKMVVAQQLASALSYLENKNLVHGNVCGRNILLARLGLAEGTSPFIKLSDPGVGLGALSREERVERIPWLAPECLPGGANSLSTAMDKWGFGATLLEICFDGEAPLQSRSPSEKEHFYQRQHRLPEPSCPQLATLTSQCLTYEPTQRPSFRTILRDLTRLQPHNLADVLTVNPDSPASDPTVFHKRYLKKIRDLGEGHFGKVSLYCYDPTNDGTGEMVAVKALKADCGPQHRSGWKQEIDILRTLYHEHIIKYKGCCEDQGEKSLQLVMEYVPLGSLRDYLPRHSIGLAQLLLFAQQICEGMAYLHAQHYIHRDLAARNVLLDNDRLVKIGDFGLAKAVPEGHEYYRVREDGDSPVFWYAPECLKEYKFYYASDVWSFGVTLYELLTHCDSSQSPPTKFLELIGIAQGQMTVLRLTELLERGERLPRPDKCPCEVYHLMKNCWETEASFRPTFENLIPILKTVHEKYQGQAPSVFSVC
How it was run: as §1

Sequence of JAK2 (O60674 whole entry): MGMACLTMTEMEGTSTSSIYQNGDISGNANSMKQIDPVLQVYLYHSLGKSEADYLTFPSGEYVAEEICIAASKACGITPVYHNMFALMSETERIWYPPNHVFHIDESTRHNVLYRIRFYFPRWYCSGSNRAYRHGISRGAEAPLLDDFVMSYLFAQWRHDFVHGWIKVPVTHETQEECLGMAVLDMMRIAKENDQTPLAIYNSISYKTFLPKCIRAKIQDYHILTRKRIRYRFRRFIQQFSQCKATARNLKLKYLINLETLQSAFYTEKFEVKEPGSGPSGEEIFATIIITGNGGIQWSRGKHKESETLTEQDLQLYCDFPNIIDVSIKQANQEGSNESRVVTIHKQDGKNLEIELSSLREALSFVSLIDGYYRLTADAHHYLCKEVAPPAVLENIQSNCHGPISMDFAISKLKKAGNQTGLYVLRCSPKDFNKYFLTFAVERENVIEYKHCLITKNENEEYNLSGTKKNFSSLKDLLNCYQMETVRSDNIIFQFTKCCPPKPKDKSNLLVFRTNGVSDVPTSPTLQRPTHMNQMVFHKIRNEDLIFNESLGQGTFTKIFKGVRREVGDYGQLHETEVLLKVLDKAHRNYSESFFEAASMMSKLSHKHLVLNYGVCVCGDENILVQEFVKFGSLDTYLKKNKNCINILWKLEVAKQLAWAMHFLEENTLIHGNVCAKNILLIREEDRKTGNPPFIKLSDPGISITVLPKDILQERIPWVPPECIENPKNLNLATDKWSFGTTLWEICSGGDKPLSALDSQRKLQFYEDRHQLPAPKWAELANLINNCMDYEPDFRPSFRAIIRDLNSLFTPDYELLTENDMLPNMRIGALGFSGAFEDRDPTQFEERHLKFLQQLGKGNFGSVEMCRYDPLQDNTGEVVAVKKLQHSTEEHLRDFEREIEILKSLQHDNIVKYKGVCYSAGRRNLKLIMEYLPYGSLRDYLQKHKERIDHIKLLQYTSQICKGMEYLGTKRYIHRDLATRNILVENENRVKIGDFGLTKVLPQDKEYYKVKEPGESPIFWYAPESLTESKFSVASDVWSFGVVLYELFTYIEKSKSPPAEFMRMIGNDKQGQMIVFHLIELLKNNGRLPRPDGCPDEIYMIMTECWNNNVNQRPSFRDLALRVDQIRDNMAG

| Compound | Ki [1] [nM] | Ki [2] [nM] | IC50 [3] [nM] | Ki [4] [nM] | Ki [5] [nM] | JAK2 pKi [1] | JAK1 pKi [2] |
| --- | --- | --- | --- | --- | --- | --- | --- |
| CCc1cc(O)ccc1-c1ccc2c(-c3nc(C4=CC(C)NC4)c[nH]3)n[nH]c2c1F (stereo not drawn) [Example 244] | 0.1 to 1 | 0.1 to 1 | 3.16 to 10 | 0.1 to 1 | 1 to 10 | – | – |
| CCc1cc(O)ccc1-c1ccc2c(-c3nc(C4=CCN(C(C)C)CC4)c[nH]3)n[nH]c2c1 [Example 20] | – | – | 3.16 to 10 | 0.1 to 1 | 1 to 10 | A (A represents a pKi value ≥10 (Ki≤0.1 nM)) | A (A represents a pKi value ≥10 (Ki≤0.1 nM)) |
| CCc1cc(O)ccc1-c1ccc2c(-c3nc(C4=CCCN(C5COC5)C4)c[nH]3)n[nH]c2c1F [Example 70] | 0.1 to 1 | 1 to 10 | 31.6 to 100 | 0.1 to 1 | 10 to 100 | – | – |
| CCc1cc(O)ccc1-c1ccc2c(-c3nc(C4=CCCN(CCCO)C4)c[nH]3)n[nH]c2c1 [Example 42] | – | – | 3.16 to 10 | 0.1 to 1 | 1 to 10 | A (A represents a pKi value ≥10 (Ki≤0.1 nM)) | A (A represents a pKi value ≥10 (Ki≤0.1 nM)) |
| CCc1cc(O)ccc1-c1ccc2c(-c3nc(C4=CCN(C)CC4)c[nH]3)n[nH]c2c1 [Example 19] | – | – | 3.16 to 10 | 0.1 to 1 | 0.1 to 1 | A (A represents a pKi value ≥10 (Ki≤0.1 nM)) | A (A represents a pKi value ≥10 (Ki≤0.1 nM)) |
| CCc1cc(O)ccc1-c1ccc2c(-c3nc(C4=CCCN(C5CN(C)C5)C4)c[nH]3)n[nH]c2c1F [Example 195] | 0.1 to 1 | 0.1 to 1 | 31.6 to 100 | 0.1 to 1 | 1 to 10 | – | – |
| CCc1cc(O)ccc1-c1ccc2c(-c3nc(C4=CCN(CCO)CC4)c[nH]3)n[nH]c2c1 [Example 33] | – | – | 3.16 to 10 | 0.1 to 1 | 0.1 to 1 | A (A represents a pKi value ≥10 (Ki≤0.1 nM)) | A (A represents a pKi value ≥10 (Ki≤0.1 nM)) |
| CCc1cc(O)ccc1-c1ccc2c(-c3nc(C4=CCN(S(=O)(=O)C5CNC5)CC4)c[nH]3)n[nH]c2c1 [Example 175] | 0.1 to 1 | 0.1 to 1 | 31.6 to 100 | 0.1 to 1 | 1 to 10 | – | – |
| CCc1cc(O)ccc1-c1ccc2c(-c3nc(C4=CCCN(C5CCN(C)C5)C4)c[nH]3)n[nH]c2c1F (stereo not drawn) [Example 215] | 0.1 to 1 | 1 to 10 | 31.6 to 100 | 0.1 to 1 | 1 to 10 | – | – |
| CCc1cc(O)ccc1-c1ccc2c(-c3nc(C4=CCN(CCN5CCOCC5)C4)c[nH]3)n[nH]c2c1F [Example 206] | – | 0.1 to 1 | 10 to 31.6 | 0.1 to 1 | 1 to 10 | A (A represents a pKi value ≥10 (Ki≤0.1 nM)) | – |
| CCc1cc(O)ccc1-c1ccc2c(-c3nc(C4=CCN(S(=O)(=O)C5CNC5)CC4)c[nH]3)n[nH]c2c1F [Example 178] | 0.1 to 1 | 1 to 10 | 100 to 316 | 1 to 10 | 10 to 100 | – | – |
| CCc1cc(O)ccc1-c1ccc2c(-c3nc(C4=CCN(C5CN(C)C5)CC4)c[nH]3)n[nH]c2c1F [Example 186] | 0.1 to 1 | 0.1 to 1 | 3.16 to 10 | 0.1 to 1 | 1 to 10 | – | – |
| CCc1cc(O)ccc1-c1ccc2c(-c3nc(C4=CC[C@@H](C)NC4)c[nH]3)n[nH]c2c1 [Example 231] | – | 0.1 to 1 | 3.16 to 10 | 0.1 to 1 | 1 to 10 | A (A represents a pKi value ≥10 (Ki≤0.1 nM)) | – |
| CCCN1CC=C(c2c[nH]c(-c3n[nH]c4c(F)c(-c5ccc(O)cc5CC)ccc34)n2)CC1 [Example 24] | – | 0.1 to 1 | 3.16 to 10 | 0.1 to 1 | 1 to 10 | A (A represents a pKi value ≥10 (Ki≤0.1 nM)) | – |
| CCc1cc(O)ccc1-c1ccc2c(-c3nc(C4=CCN(CCSC)CC4)c[nH]3)n[nH]c2c1F [Example 81] | – | 0.1 to 1 | 31.6 to 100 | 0.1 to 1 | 1 to 10 | A (A represents a pKi value ≥10 (Ki≤0.1 nM)) | – |
| CCc1cc(O)ccc1-c1ccc2c(-c3nc(C4=CCN(C(=O)CN)CC4)c[nH]3)n[nH]c2c1F [Example 157] | – | 0.1 to 1 | 31.6 to 100 | 0.1 to 1 | 1 to 10 | A (A represents a pKi value ≥10 (Ki≤0.1 nM)) | – |
| CCc1cc(O)ccc1-c1ccc2c(-c3nc(C4=CCN(C5COC5)C4)c[nH]3)n[nH]c2c1F [Example 75] | 0.1 to 1 | 0.1 to 1 | 10 to 31.6 | 0.1 to 1 | 1 to 10 | – | – |
| CCc1cc(O)ccc1-c1ccc2c(-c3nc(C4=CCN(C)C4)c[nH]3)n[nH]c2c1F [Example 31] | 0.1 to 1 | 0.1 to 1 | 3.16 to 10 | 0.1 to 1 | 1 to 10 | – | – |
| CCc1cc(O)ccc1-c1ccc2c(-c3nc(C4=CCCN(CCSC)C4)c[nH]3)n[nH]c2c1F [Example 90] | 0.1 to 1 | 0.1 to 1 | 31.6 to 100 | 0.1 to 1 | 10 to 100 | – | – |
| CCc1cc(O)ccc1-c1ccc2c(-c3nc(C4=CC(CC)NC4)c[nH]3)n[nH]c2c1F (stereo not drawn) [Example 321] | 0.1 to 1 | 0.1 to 1 | 10 to 31.6 | 0.1 to 1 | 1 to 10 | – | – |
| CCc1cc(O)ccc1-c1ccc2c(-c3nc(C4=CCN(C5CCN(C)C5)CC4)c[nH]3)n[nH]c2c1F (stereo not drawn) [Example 208] | – | 0.1 to 1 | 10 to 31.6 | 0.1 to 1 | 1 to 10 | A (A represents a pKi value ≥10 (Ki≤0.1 nM)) | – |
| CCc1cc(O)ccc1-c1ccc2c(-c3nc(C4=CCN(C(=O)CN)C4)c[nH]3)n[nH]c2c1F [Example 173] | – | 0.1 to 1 | 31.6 to 100 | 0.1 to 1 | 1 to 10 | A (A represents a pKi value ≥10 (Ki≤0.1 nM)) | – |
| CCc1cc(O)ccc1-c1ccc2c(-c3nc(C4=CCN(C5CCN(C)C5)C4)c[nH]3)n[nH]c2c1F (stereo not drawn) [Example 219] | – | 0.1 to 1 | 10 to 31.6 | 0.1 to 1 | 0.1 to 1 | A (A represents a pKi value ≥10 (Ki≤0.1 nM)) | – |
| CCc1cc(O)ccc1-c1ccc2c(-c3nc(C4=CCN(C[C@@H]5CCN5)CC4)c[nH]3)n[nH]c2c1F [Example 390] | – | 0.1 to 1 | 100 to 316 | 0.1 to 1 | 1 to 10 | A (A represents a pKi value ≥10 (Ki≤0.1 nM)) | – |
